Drawing on patent US9249145B2, “Heterocyclic derivatives of pyrazol-4-yl-pyrrolo[2,3-d]pyrimidines as janus kinase inhibitors” (Incyte Holdings Corporation, priority 2009, dated 2016), this text covers IC50 for 20 molecules.

Test [1] deals with T1, human JAK1 (a.a. 837-1142) (Homo sapiens, UniProt P23458).
T1 construct: The catalytic domains of human JAK1 (a.a. 837-1142); His tag (N); made in house; host or cells: insect cells (baculovirus)
Briefly: In vitro JAK kinase assay (HTRF, phosphorylation of biotinylated peptide), JAK1. It counts as biochemical. The conditions noted are these: 1 mM ATP; Examples 92-162; read-out: JAK1 IC50 (nM) @ 1 mM ATP. The method, boiled down: (§1)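 His-tagged catalytic domains expressed in baculovirus/insect cells; biotinylated peptide (500 nM) phosphorylation in 50 mM Tris pH 7.8, 100 mM NaCl, 5 mM DTT, 0.01% BSA, 1 h room temperature. ATP at Km (JAK1 90 μM, JAK2 30 μM) or 1 mM. EDTA stop, Eu-Py20/SA-APC HTRF read; IC50.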
(In general: TR-FRET usually uses a lanthanide donor and a delayed reading to cut background.)

A further test deals with T2, Jak2 (a.a. 828-1132) (Homo sapiens, UniProt O60674).
T2 construct: Jak2 (a.a. 828-1132); His tag (N); made in house; host or cells: insect cells (baculovirus)
Briefly: In vitro JAK kinase assay (HTRF, phosphorylation of biotinylated peptide), JAK2. The class given is biochemical. The conditions noted are these: 1 mM ATP; Examples 92-162; read-out: JAK2 IC50 (nM) @ 1 mM ATP. The method, boiled down:
as §1

T1 sequence (P23458 849-1154): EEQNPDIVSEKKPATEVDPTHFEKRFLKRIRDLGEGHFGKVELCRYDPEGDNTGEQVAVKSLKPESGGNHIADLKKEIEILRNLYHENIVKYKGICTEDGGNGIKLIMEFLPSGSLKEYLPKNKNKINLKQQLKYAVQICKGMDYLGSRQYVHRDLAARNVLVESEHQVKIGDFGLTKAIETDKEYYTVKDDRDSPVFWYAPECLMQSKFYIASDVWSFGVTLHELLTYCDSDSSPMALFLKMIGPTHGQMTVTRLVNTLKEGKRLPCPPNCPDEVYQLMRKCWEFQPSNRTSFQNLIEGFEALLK
T2 sequence (O60674 828-1132): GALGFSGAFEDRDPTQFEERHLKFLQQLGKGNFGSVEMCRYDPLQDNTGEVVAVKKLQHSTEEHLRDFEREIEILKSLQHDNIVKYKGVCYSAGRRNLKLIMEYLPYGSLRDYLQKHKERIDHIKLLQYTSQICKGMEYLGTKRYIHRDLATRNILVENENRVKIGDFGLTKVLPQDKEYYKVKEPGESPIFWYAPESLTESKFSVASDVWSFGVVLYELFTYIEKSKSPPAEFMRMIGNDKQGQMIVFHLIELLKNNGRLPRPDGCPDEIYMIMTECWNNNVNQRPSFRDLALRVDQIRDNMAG

With `CCC(CN1CCN(S(=O)(=O)c2sccc2Cl)CC1)n1cc(-c2ncnc3[nH]ccc23)cn1` (stereo not shown) [Example 135, 4-(1-(1-(4-(3-chlorothiophen-2-ylsulfonyl)piperazin-1-yl)butan-2-yl)-1H-pyrazol-4-yl)-7H-pyrrolo[2,3-d]pyrimidine], the IC50 (usually the concentration that inhibits the measured activity by half) is less than 20 nM in test [1] and 20 to 50 nM at Jak2 (a.a. 828-1132).
Consider `CCC(CN1CCN(S(=O)(=O)c2cccc(F)c2)CC1)n1cc(-c2ncnc3[nH]ccc23)cn1` (stereo not shown) [Example 136, 4-(1-(1-(4-(3-fluorophenylsulfonyl)piperazin-1-yl)butan-2-yl)-1H-pyrazol-4-yl)-7H-pyrrolo[2,3-d]pyrimidine], for which the IC50 was less than 20 nM in test [1] and 20 to 50 nM at Jak2 (a.a. 828-1132).
For the molecule `CCC(CN1CCN(S(=O)(=O)c2ccc(F)cc2)CC1)n1cc(-c2ncnc3[nH]ccc23)cn1` (stereo not shown) [Example 137, 4-(1-(1-(4-(4-fluorophenylsulfonyl)piperazin-1-yl)butan-2-yl)-1H-pyrazol-4-yl)-7H-pyrrolo[2,3-d]pyrimidine], the half-inhibitory concentration (IC50) in test [1] is less than 20 nM; on Jak2 (a.a. 828-1132) it was 50 to 100 nM.
Regarding `CCC(CN1CCN(S(=O)(=O)c2cccc(C#N)c2)CC1)n1cc(-c2ncnc3[nH]ccc23)cn1` (stereo not shown) [Example 139, 3-(4-(2-(4-(7H-pyrrolo[2,3-d]pyrimidin-4-yl)-1H-pyrazol-1-yl)butyl)piperazin-1-ylsulfonyl)benzonitrile], the half-inhibitory concentration (IC50) is 20 to 50 nM in test [1] and more than 100 nM at Jak2 (a.a. 828-1132).
For `CCC(CN1CCN(S(=O)(=O)c2ccc(F)cc2F)CC1)n1cc(-c2ncnc3[nH]ccc23)cn1` (stereo not shown) [Example 140, 4-(1-(1-(4-(2,4-difluorophenylsulfonyl)piperazin-1-yl)butan-2-yl)-1H-pyrazol-4-yl)-7H-pyrrolo[2,3-d]pyrimidine], in that order: less than 20 nM and 50 to 100 nM.
Consider `CCC(CN1CCN(S(=O)(=O)c2cc(F)ccc2F)CC1)n1cc(-c2ncnc3[nH]ccc23)cn1` (stereo not shown) [Example 141, 4-(1-(1-(4-(2,5-difluorophenylsulfonyl)piperazin-1-yl)butan-2-yl)-1H-pyrazol-4-yl)-7H-pyrrolo[2,3-d]pyrimidine], for which the IC50 in test [1] was less than 20 nM; at Jak2 (a.a. 828-1132), 50 to 100 nM.
As to `CCC(CN1CCN(S(=O)(=O)c2cc(F)cc(F)c2)CC1)n1cc(-c2ncnc3[nH]ccc23)cn1` (stereo not shown) [Example 142, 4-(1-(1-(4-(3,5-difluorophenylsulfonyl)piperazin-1-yl)butan-2-yl)-1H-pyrazol-4-yl)-7H-pyrrolo[2,3-d]pyrimidine], the IC50 in test [1] is less than 20 nM; on Jak2 (a.a. 828-1132), 50 to 100 nM.
As for `CCC(CN1CCN(S(=O)(=O)c2ccc(F)cc2C)CC1)n1cc(-c2ncnc3[nH]ccc23)cn1` (stereo not shown) [Example 143, 4-(1-(1-(4-(4-floro-2-methylphenylsulfonyl)piperazin-1-yl)butan-2-yl)-1H-pyrazol-4-yl)-7H-pyrrolo[2,3-d]pyrimidine], the 50% inhibitory concentration (IC50) in test [1] was less than 20 nM; at Jak2 (a.a. 828-1132), more than 100 nM.
In the case of `CCC(CN1CCN(S(=O)(=O)c2cn(C)c(C)n2)CC1)n1cc(-c2ncnc3[nH]ccc23)cn1` (stereo not shown) [Example 144, 4-(1-(1-(4-(1,2-dimethyl-1H-imidazol-4-ylsulfonyl)piperazin-1-yl)butan-2-yl)-1H-pyrazol-4-yl)-7H-pyrrolo[2,3-d]pyrimidine], the IC50 in test [1] fell in the range of 20 to 50 nM; at Jak2 (a.a. 828-1132), 50 to 100 nM.
As for `CCC(CN1CCN(S(=O)(=O)c2ccc(Br)s2)CC1)n1cc(-c2ncnc3[nH]ccc23)cn1` (stereo not shown) [Example 145, 4-(1-(1-(4-(5-bromothiophen-2-ylsulfonyl)piperazin-1-yl)butan-2-yl)-1H-pyrazol-4-yl)-7H-pyrrolo[2,3-d]pyrimidine], the IC50 in test [1] is less than 20 nM; at Jak2 (a.a. 828-1132) it was 20 to 50 nM.
For `Cc1c(Nc2ccccc2)ncnc1N1CCC(C(CC#N)n2cc(-c3ncnc4[nH]ccc34)cn2)CC1` (stereo not shown) [Example 146, 3-[1-(6-anilino-5-methylpyrimidin-4-yl)piperidin-4-yl]-3-[4-(7H-pyrrolo[2,3-d]pyrimidin-4-yl)-1H-pyrazol-1-yl]propanenitrile] the same measures were 20 to 50 nM and more than 100 nM.
For `Cc1c(Nc2ccccc2F)ncnc1N1CCC(C(CC#N)n2cc(-c3ncnc4[nH]ccc34)cn2)CC1` (stereo not shown) [Example 147, 3-(4-(7H-pyrrolo[2,3-d]pyrimidin-4-yl)-1H-pyrazol-1-yl)-3-(1-(6-(2-fluorophenylamino)-5-methylpyrimidin-4-yl)piperidin-4-yl)propanenitrile], the IC50 is less than 20 nM in test [1] and more than 100 nM at Jak2 (a.a. 828-1132).
Regarding `Cc1c(Nc2cccc(F)c2)ncnc1N1CCC(C(CC#N)n2cc(-c3ncnc4[nH]ccc34)cn2)CC1` (stereo not shown) [Example 148, 3-(4-(7H-pyrrolo[2,3-d]pyrimidin-4-yl)-1H-pyrazol-1-yl)-3-(1-(6-(3-fluorophenylamino)-5-methylpyrimidin-4-yl)piperidin-4-yl)propanenitrile], the IC50 is less than 20 nM in test [1] and 50 to 100 nM at Jak2 (a.a. 828-1132).
Consider `Cc1c(Nc2cc(F)ccc2F)ncnc1N1CCC(C(CC#N)n2cc(-c3ncnc4[nH]ccc34)cn2)CC1` (stereo not shown) [Example 149, 3-(4-(7H-pyrrolo[2,3-d]pyrimidin-4-yl)-1H-pyrazol-1-yl)-3-(1-(6-(2,5-difluorophenylamino)-5-methylpyrimidin-4-yl)piperidin-4-yl)propanenitrile], for which the IC50 in test [1] was less than 20 nM; at Jak2 (a.a. 828-1132), more than 100 nM.
For `Cc1c(Nc2ccc(F)c(F)c2)ncnc1N1CCC(C(CC#N)n2cc(-c3ncnc4[nH]ccc34)cn2)CC1` (stereo not shown) [Example 150, 3-(4-(7H-pyrrolo[2,3-d]pyrimidin-4-yl)-1H-pyrazol-1-yl)-3-(1-(6-(3,4-difluorophenylamino)-5-methylpyrimidin-4-yl)piperidin-4-yl)propanenitrile], in that order: less than 20 nM and less than 20 nM.
For `N#CCC(C1CCN(c2cc(Oc3ccccc3)ncn2)CC1)n1cc(-c2ncnc3[nH]ccc23)cn1` (stereo not shown) [Example 151, 3-(4-(7H-pyrrolo[2,3-d]pyrimidin-4-yl)-1H-pyrazol-1-yl)-3-(1-(6-phenoxypyrimidin-4-yl)piperidin-4-yl)propanenitrile], in that order: less than 20 nM and 50 to 100 nM.
As for `N#CCC(C1CCN(c2cc(Oc3cccc(F)c3)ncn2)CC1)n1cc(-c2ncnc3[nH]ccc23)cn1` (stereo not shown) [Example 152, 3-(4-(7H-pyrrolo[2,3-d]pyrimidin-4-yl)-1H-pyrazol-1-yl)-3-(1-(6-(3-fluorophenoxy)pyrimidin-4-yl)piperidin-4-yl)propanenitrile], the half-inhibitory concentration (IC50) in test [1] is 20 to 50 nM; at Jak2 (a.a. 828-1132), less than 20 nM.
For `Cc1c(Nc2cccc(F)c2F)ncnc1N1CCC(C(CC#N)n2cc(-c3ncnc4[nH]ccc34)cn2)CC1` (stereo not shown) [Example 153, 3-(4-(7H-pyrrolo[2,3-d]pyrimidin-4-yl)-1H-pyrazol-1-yl)-3-(1-(6-(2,3-difluorophenylamino)-5-methylpyrimidin-4-yl)piperidin-4-yl)propanenitrile], in that order: 20 to 50 nM and more than 100 nM.
For `Cc1c(Nc2c(F)cccc2F)ncnc1N1CCC(C(CC#N)n2cc(-c3ncnc4[nH]ccc34)cn2)CC1` (stereo not shown) [Example 154, 3-(4-(7H-pyrrolo[2,3-d]pyrimidin-4-yl)-1H-pyrazol-1-yl)-3-(1-(6-(2,6-difluorophenylamino)-5-methylpyrimidin-4-yl)piperidin-4-yl)propanenitrile], in that order: less than 20 nM and 50 to 100 nM.
`Cc1c(Nc2ccc(F)cc2F)ncnc1N1CCC(C(CC#N)n2cc(-c3ncnc4[nH]ccc34)cn2)CC1` (stereo not shown) [Example 155, 3-(4-(7H-pyrrolo[2,3-d]pyrimidin-4-yl)-1H-pyrazol-1-yl)-3-(1-(6-(2,4-difluorophenylamino)-5-methylpyrimidin-4-yl)piperidin-4-yl)propanenitrile]: the 50% inhibitory concentration (IC50) in test [1] is less than 20 nM; at Jak2 (a.a. 828-1132), more than 100 nM.
